Measured values taken from article PMC6269873, “Substituted 3-Benzylcoumarins as Allosteric MEK1 Inhibitors: Design, Synthesis and Biological Evaluation as Antiviral Agents” (Molecules, 2013).
Read-outs that look alike come from different tables or passages of the source.

Experiments:
ERK pathway = assay: cells; format: cell-based, Human; conditions: for IC50: Homo sapiens, HEK293
Method: The effects of the inhibitors on the activation of ERK pathway were determined in TPA (12-O-tetradecanoylphorbol-13-acetate)-stimulated cells using the AP-1 luciferase reporter gene assay system. Activating protein-1 (AP-1) is the nuclear transcription factor which is a heterodimeric protein downstream of MAPK composed of dimers of the Fos and Jun proteins. The stable AP-1 dimers bind to DNA recognition elements (AP-1 response elements) and mediate transcriptional induction. AP-1 controls a number of cellular events including differentiation, proliferation and apoptosis. Simultaneously, the expression of AP-1 can be regulated in response to different extracellular stimuli, such as cytokines, growth factors, stress, and bacterial and viral infections. ERK pathway is the most important mediator which is closely related to these responses. Activation of ERK pathway causes induction of fos gene, and then the product heterodimerizes with the Jun protein to form the AP-1 dimers. These newly formed heterodimers can enhance the expression of c-jun through AP-1 binding sites in the c-jun promoter. TPA can increase levels of AP-1 proteins through activation of the ERK pathway.
3.4.2. AP-1 Luciferase Reporter Gene Assay
pAP1-Luc was constructed with pGL3-basic (Promega, Madison, WI. USA) and a fragment including the AP-1 response element (2× TRE) and T7 promoter. HEK 293 cells in 96-well plates were cultured at 5% CO2 at 37 °C in DMEM containing 10% FBS. When the confluence was up to 80%, cells were transinfected with pAP1-Luc using lipofectamine 2000 (Life Technologies, Carlsbad, CA. USA). At 24 h post transinfection, individual compounds with different concentrations (5, 10, 20, 30 μM) were added into cells using three wells for each concentration used. After incubation for 1 h, TPA (50 nM) was added. The cells were harvested after 4 h and luciferase activity was measured by using luciferase assay kit (Promega) with a luminometer.

phosphorylated MEK1 = phosphorylated MEK1 (Homo sapiens, UniProt Q02750); assay: MEK1 binding assay (HTRF, tracer displacement); conditions: for inhibition at 2 µM: read-out: % binding (2 µM); for inhibition at 20 µM: read-out: % binding (20 µM)
Method: The homogeneous time resolved fluorescence (HTRF) assay was performed on a Proxiplate-384 F plus solid back plate (Perkin Elmer, Waltham, MA. USA) with 5 nM GST tagged phosphorylated MEK1 (GST-MEK1), 2 nM europium-labeled anti-GST antibody (Eu-anti-GST), 20 nM kinase tracer 236 and test compound at a variety of concentrations. In the reaction mixture, GST-MEK1 forms a complex with the Eu-anti-GST and the tracer. Excitation of europium (the donor) using a 340-nm excitation filter results in energy transfer to the fluorophore of the tracer. This energy transfer is detected by an increase in the fluorescence emission of the tracer at 665 nm and a decrease in the fluorescence emission of europium at 615 nm. The FRET ratio was calculated by dividing the emission signal at 665 nm by the emission signal at 615 nm. A competitor compound such as a MEK inhibitor replaces the tracer from the complex and decreases the FRET ratio accordingly. The plate was incubated in dark at room temperature for 30 min before measuring the fluorescent emission of each well at 665 and 615 nm using a 340-nm excitation filter, 100-µs delay time, and 200-µs integration time, on a PHERAStar plate reader (BMG Labtech, Durham, NC, USA). […] Data shown as %Inhibition normalized to AZD6244 at 100 µM.

[1] = HTRF binding to GST tagged phosphorylated MEK1, read-out: IC50

Chain of phosphorylated MEK1 (Q02750 whole entry): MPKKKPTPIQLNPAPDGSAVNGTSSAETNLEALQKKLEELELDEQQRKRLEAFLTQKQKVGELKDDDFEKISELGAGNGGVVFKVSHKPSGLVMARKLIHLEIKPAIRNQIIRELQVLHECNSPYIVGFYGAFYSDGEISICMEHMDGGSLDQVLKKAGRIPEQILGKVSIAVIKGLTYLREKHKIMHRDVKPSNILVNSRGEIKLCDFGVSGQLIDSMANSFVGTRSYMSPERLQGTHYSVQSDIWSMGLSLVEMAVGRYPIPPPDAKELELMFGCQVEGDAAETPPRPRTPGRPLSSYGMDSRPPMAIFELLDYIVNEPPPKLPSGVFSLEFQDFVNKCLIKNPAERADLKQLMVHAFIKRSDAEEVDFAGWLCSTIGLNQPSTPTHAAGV

SMILES	IC50 (ERK pathway) [µM]	IC50 (phosphorylated MEK1) [µM]	inhibition at 2 µM (phosphorylated MEK1) [%]	inhibition at 20 µM (phosphorylated MEK1) [%]	melting point [°C]	IC50 (phosphorylated MEK1; [1]) [µM]	inhibition of ERK pathway activation (in words) (ERK pathway)	binding affinity (in words) (phosphorylated MEK1)
Cc1c(Cc2ccccc2)c(=O)oc2cc(OC(=O)N(C)C)c(Cl)cc12 [Compound 14, 3-Benzyl-6-chloro-4-methyl-2-oxo-2H-chromen-7-yl dimethylcarbamate]	30.8 ± 1.4	0.307	66.3	80.8	156 to 157	–	–	–
CC(=O)Oc1ccc2c(C)c(Cc3ccccc3)c(=O)oc2c1 [Compound 28, 3-Benzyl-4-methyl-2-oxo-2H-chromen-7-yl acetate]	37.6 ± 1.1	–	72.2	96.5	165 to 166	0.52	–	–
CCc1c(Cc2ccccc2)c(=O)oc2cc(OC(C)=O)ccc12 [Compound 29, 3-Benzyl-4-ethyl-2-oxo-2H-chromen-7-yl acetate]	90.5 ± 1.83	–	88.7	102	123 to 125	0.176	–	–
CC(=O)Oc1ccc2c(C)c(Cc3ccc(F)cc3)c(=O)oc2c1 [Compound 31, 3-(4-Fluorobenzyl)-4-methyl-2-oxo-2H-chromen-7-yl acetate]	15.7 ± 1.18	–	72.2	78.2	–	0.248	more efficiently than U0126	–
CCC(=O)Oc1ccc2c(CC)c(Cc3ccccc3)c(=O)oc2c1 [Compound 36, 3-Benzyl-4-ethyl-2-oxo-2H-chromen-7-yl propionate]	49.8 ± 1.24	–	81	87	124	0.391	–	–
CCCCC(=O)Oc1ccc2c(C)c(Cc3ccc(F)cc3)c(=O)oc2c1 [Compound 53, 3-(4-Fluorobenzyl)-4-methyl-2-oxo-2H-chromen-7-yl pentanoate]	–	–	34.7	38.3	83 to 84	–	–	–
CCCCC(=O)Oc1ccc2c(CCC)c(Cc3ccc(F)cc3)c(=O)oc2c1 [Compound 54, 3-(4-Fluorobenzyl)-2-oxo-4-propyl-2H-chromen-7-yl pentanoate]	–	–	11.7	23.9	68 to 70	–	–	–
Cc1c(Cc2ccccc2)c(=O)oc2cc(OC(=O)C(C)(C)C)ccc12 [Compound 55, 3-Benzyl-4-methyl-2-oxo-2H-chromen-7-yl pivalate]	–	–	14.6	14.8	157 to 158	–	–	–
Cc1c(Cc2ccccc2)c(=O)oc2cc(OC(=O)C(C)(C)C)c(Cl)cc12 [Compound 56, 3-Benzyl-6-chloro-4-methyl-2-oxo-2H-chromen-7-yl pivalate]	–	–	16.6	34.1	113	–	–	–
CCc1c(Cc2ccccc2)c(=O)oc2cc(OC(=O)C(C)(C)C)ccc12 [Compound 57, 3-Benzyl-4-ethyl-2-oxo-2H-chromen-7-yl pivalate]	–	–	6.61	21	105 to 106	–	–	–
CCCc1c(Cc2ccccc2)c(=O)oc2cc(OC(=O)C(C)(C)C)ccc12 [Compound 58, 3-Benzyl-2-oxo-4-propyl-2H-chromen-7-yl pivalate]	–	–	43.2	19.1	138 to 139	–	–	–
CCc1c(Cc2ccc(F)cc2)c(=O)oc2cc(OC(=O)C(C)(C)C)ccc12 [Compound 59, 4-Ethyl-3-(4-fluorobenzyl)-2-oxo-2H-chromen-7-yl pivalate]	–	–	45.9	23.4	103 to 104	–	–	inactive
Cc1c(Cc2ccc(F)cc2)c(=O)oc2cc(OC(=O)C(C)(C)C)ccc12 [Compound 60, 3-(4-Fluorobenzyl)-4-methyl-2-oxo-2H-chromen-7-yl pivalate]	–	–	23.7	20.3	136 to 138	–	–	–
CCCc1c(Cc2ccc(F)cc2)c(=O)oc2cc(OC(=O)C(C)(C)C)ccc12 [Compound 61, 3-(4-Fluorobenzyl)-2-oxo-4-propyl-2H-chromen-7-yl pivalate]	–	–	31.6	40.9	138 to 140	–	–	–
Cc1c(Cc2ccccc2)c(=O)oc2cc(OC(=O)c3ccccc3)ccc12 [Compound 62, 3-Benzyl-4-methyl-2-oxo-2H-chromen-7-yl benzoate]	–	–	4.07	31.1	149 to 150	–	–	–
Cc1c(Cc2ccccc2)c(=O)oc2cc(OC(=O)c3ccccc3)c(Cl)cc12 [Compound 63, 3-Benzyl-6-chloro-4-methyl-2-oxo-2H-chromen-7-yl benzoate]	–	–	33.3	28	133 to 135	–	–	–
CCc1c(Cc2ccccc2)c(=O)oc2cc(OC(=O)c3ccccc3)ccc12 [Compound 64, 3-Benzyl-4-ethyl-2-oxo-2H-chromen-7-yl benzoate]	–	–	10.1	21.5	138	–	–	–
CCCc1c(Cc2ccccc2)c(=O)oc2cc(OC(=O)c3ccccc3)ccc12 [Compound 65, 3-Benzyl-2-oxo-4-propyl-2H-chromen-7-yl benzoate]	–	–	32.6	37.1	120	–	–	–
Cc1c(Cc2ccc(F)cc2)c(=O)oc2cc(OC(=O)c3ccccc3)ccc12 [Compound 66, 3-(4-Fluorobenzyl)-4-methyl-2-oxo-2H-chromen-7-yl benzoate]	–	–	25.8	31	151 to 153	–	–	–
CCCc1c(Cc2ccc(F)cc2)c(=O)oc2cc(OC(=O)c3ccccc3)ccc12 [Compound 68, 3-(4-Fluorobenzyl)-2-oxo-4-propyl-2H-chromen-7-yl benzoate]	–	–	26.1	45.6	95 to 96	–	–	–
Cc1ccc(S(=O)(=O)Oc2ccc3c(C)c(Cc4ccccc4)c(=O)oc3c2)cc1 [Compound 76, 3-Benzyl-4-methyl-2-oxo-2H-chromen-7-yl 4-methylbenzenesulfonate]	–	–	2.87	-2.36	138 to 139	–	–	–
Cc1ccc(S(=O)(=O)Oc2cc3oc(=O)c(Cc4ccccc4)c(C)c3cc2Cl)cc1 [Compound 77, 3-Benzyl-6-chloro-4-methyl-2-oxo-2H-chromen-7-yl 4-methylbenzenesulfonate]	–	–	31.7	29.6	173 to 174	–	–	–
Cc1ccc(S(=O)(=O)Oc2ccc3c(C)c(Cc4ccc(F)cc4)c(=O)oc3c2)cc1 [Compound 81, 3-(4-Fluorobenzyl)-4-methyl-2-oxo-2H-chromen-7-yl 4-methylbenzenesulfonate]	–	–	8.05	9.55	95 to 96	–	–	–
COc1ccc2cc(Cc3ccccc3)c(=O)oc2c1 [Compound 83, 3-Benzyl-7-methoxy-2H-chromen-2-one]	–	–	23	2.93	102 to 103	–	–	–
COc1ccc2cc(Cc3ccc(F)cc3)c(=O)oc2c1 [Compound 84, 3-(4-Fluorobenzyl)-7-methoxy-2H-chromen-2-one]	–	–	17.6	15.4	94 to 95	–	–	–
COc1ccc2cc(C(=O)c3ccccc3)c(=O)oc2c1 [Compound 86, 3-benzoyl-7-methoxycoumarin]	–	–	7.96	-8.83	149 to 150	–	–	–
COc1ccc2c(C#N)c(C(=O)c3ccccc3)c(=O)oc2c1 [Compound 88, 3-Benzoyl-4-cyano-7-methoxycoumarin]	–	–	32.4	22.9	175 to 176	–	–	–
COc1ccc2c(C(=O)O)c(C(=O)c3ccccc3)c(=O)oc2c1 [Compound 89, 3-Benzoyl-4-carboxy-7-methoxycoumarin]	–	–	16.5	6.34	196 to 197	–	–	–
